This is an account of results in ChEMBL document CHEMBL1155893 (J Med Chem, 2008).

Type in all cases: functional, organism-based
In test [1] the test system is Plasmodium falciparum. Briefly: Antimalarial activity against chloroquine,mefloquine-sensitive Plasmodium falciparum D6.
The test system of test [2] is Plasmodium falciparum. Put plainly: Antimalarial activity against multidrug-resistant Plasmodium falciparum TM91C235.
Test [3] deals with Plasmodium falciparum. Put plainly: Antimalarial activity against chloroquine-resistant Plasmodium falciparum W2.

Structures are written as SMILES.

A word on the IC50: it is the concentration at which inhibition is half-maximal. In general, IC90 refers to the concentration needed for an effect of 90%. A lower IC90 goes with an effect from little substance. With `O=C(NCCCNc1ccnc2cc(Cl)ccc12)C12CC3CC(CC(C3)C1)C2`, the IC50 is 214 nM with Plasmodium falciparum [1], 525 nM with Plasmodium falciparum [2] and 878 nM in the test on Plasmodium falciparum [3]. Also, the figures for the IC90 in the test on Plasmodium falciparum [1], with Plasmodium falciparum [2] and in the test on Plasmodium falciparum [3] were 370 nM, 787 nM and 1360 nM, respectively.
As to `O[C@@H](c1cc(C(F)(F)F)nc2c(C(F)(F)F)cccc12)[C@H]1CCCCN1` [MEFLOQUINE], half-maximal inhibition in the test with Plasmodium falciparum [1] (IC50) was put at 11.2 nM. Also, the IC90 in the test on Plasmodium falciparum [1] is 28.1 nM; in the test on Plasmodium falciparum [2], 106 nM; in the test with Plasmodium falciparum [3], 14.7 nM.
As for `CCCNC(=O)CC[C@@H](C)[C@H]1CC[C@H]2[C@@H]3[C@H](OC(C)=O)C[C@@H]4C[C@H](Nc5ccnc6cc(Cl)ccc56)CC[C@]4(C)[C@H]3C[C@H](OC(C)=O)[C@]12C`, the IC50 with Plasmodium falciparum [1] turned out to be 68.2 nM; in the test on Plasmodium falciparum [2], 99.5 nM; in the test with Plasmodium falciparum [3] it was 209 nM. In addition, the IC90 is 98.2 nM in the test with Plasmodium falciparum [1], 367 nM in the test with Plasmodium falciparum [2] and 1850 nM with Plasmodium falciparum [3].
With `O=C(NCCCCCNc1ccnc2cc(Cl)ccc12)C12CC3CC(CC(C3)C1)C2`, the IC50 in the test on Plasmodium falciparum [1] worked out at 511 nM; in the test on Plasmodium falciparum [2], 765 nM; in the test on Plasmodium falciparum [3], 884 nM. Moreover, the IC90 in the test with Plasmodium falciparum [1] stood at 632 nM; with Plasmodium falciparum [2], 984 nM; in the test with Plasmodium falciparum [3], 1410 nM.
On to `COC(=O)CC[C@@H](C)[C@H]1CC[C@H]2[C@@H]3[C@H](OC(C)=O)C[C@@H]4C[C@@H](NCCNc5ccnc6cc(Cl)ccc56)CC[C@]4(C)[C@H]3C[C@H](OC(C)=O)[C@]12C`, for which the IC50 in the test on Plasmodium falciparum [1] was determined as 6.17 nM; in the test on Plasmodium falciparum [2], 11 nM; with Plasmodium falciparum [3] it was 3.38 nM. The IC90 with Plasmodium falciparum [1] is 10.4 nM; in the test on Plasmodium falciparum [2] it was 25 nM; with Plasmodium falciparum [3], 6.74 nM.
Turning to `COC(=O)CC[C@@H](C)[C@H]1CC[C@H]2[C@@H]3[C@H](OC(C)=O)C[C@@H]4C[C@H](OCCNc5ccnc6cc(Cl)ccc56)CC[C@]4(C)[C@H]3C[C@H](OC(C)=O)[C@]12C`, the IC50 in the test on Plasmodium falciparum [1] was 33 nM; in the test on Plasmodium falciparum [2] it was 50.5 nM; in the test with Plasmodium falciparum [3] it was 111 nM. Further, the values for the IC90 in the test with Plasmodium falciparum [1], in the test on Plasmodium falciparum [2] and in the test with Plasmodium falciparum [3] were 99.3 nM, 72.8 nM and 147 nM, respectively.
As for `CCN(CC)CCCC(C)Nc1ccnc2cc(Cl)ccc12` (stereo not given) [CHLOROQUINE], the IC90 is 16.4 nM in the test on Plasmodium falciparum [1] and 530 nM in the test on Plasmodium falciparum [3].
As for `Clc1ccc2c(NCCNCCC34CC5CC(CC(C5)C3)C4)ccnc2c1`, the IC50 with Plasmodium falciparum [1] came to 8.59 nM; in the test on Plasmodium falciparum [2], 17.8 nM; with Plasmodium falciparum [3], 15.7 nM. The results for the IC90 in the test with Plasmodium falciparum [1], in the test with Plasmodium falciparum [2] and with Plasmodium falciparum [3] were 13.7 nM, 24.4 nM and 31 nM, respectively.
As to `Clc1ccc2c(NCCCNCCC34CC5CC(CC(C5)C3)C4)ccnc2c1`, the IC50 in the test on Plasmodium falciparum [1] was determined as 11.4 nM; in the test with Plasmodium falciparum [2] it was 42.1 nM; with Plasmodium falciparum [3], 33.7 nM. Moreover, the values for the IC90 with Plasmodium falciparum [1], in the test on Plasmodium falciparum [2] and in the test on Plasmodium falciparum [3] were 23.3 nM, 171 nM and 56.1 nM, respectively.
`COC(=O)CC[C@@H](C)[C@H]1CC[C@H]2[C@@H]3[C@H](OC(C)=O)C[C@@H]4C[C@H](Nc5ccnc6cc(Cl)ccc56)CC[C@]4(C)[C@H]3C[C@H](OC(C)=O)[C@]12C`: the IC50 is 10.7 nM in the test with Plasmodium falciparum [1], 30.1 nM with Plasmodium falciparum [2] and 108 nM in the test with Plasmodium falciparum [3]. Also, the IC90 was determined as 20.7 nM with Plasmodium falciparum [1], 68.6 nM in the test on Plasmodium falciparum [2] and 563 nM in the test with Plasmodium falciparum [3].
Regarding `COC(=O)CC[C@@H](C)[C@H]1CC[C@H]2[C@@H]3[C@H](OC(C)=O)C[C@@H]4C[C@H](NCCNc5ccnc6cc(Cl)ccc56)CC[C@]4(C)[C@H]3C[C@H](OC(C)=O)[C@]12C`, the results for the concentration for half-maximal inhibition (IC50) in the test on Plasmodium falciparum [1], in the test on Plasmodium falciparum [2] and in the test with Plasmodium falciparum [3] were 9.47 nM, 12.8 nM and 5.74 nM, respectively. Also, the IC90 in the test with Plasmodium falciparum [1] was 12.3 nM; in the test with Plasmodium falciparum [2], 24.4 nM; in the test with Plasmodium falciparum [3] it was 11.2 nM.
With `CC(=O)O[C@@H]1CC[C@@]2(C)[C@@H](C1)C[C@@H](OC(C)=O)[C@@H]1[C@@H]2C[C@H](OC(C)=O)[C@]2(C)[C@@H]([C@H](C)CCC(=O)NCCNc3ccnc4cc(Cl)ccc34)CC[C@@H]12`, the IC50 was 19 nM in the test with Plasmodium falciparum [1], 28.8 nM with Plasmodium falciparum [2] and 48.9 nM in the test with Plasmodium falciparum [3]. The figures for the IC90 with Plasmodium falciparum [1], in the test with Plasmodium falciparum [2] and in the test with Plasmodium falciparum [3] were 21.1 nM, 34.8 nM and 70.6 nM, respectively.
As to `O=C(NCCNc1ccnc2cc(Cl)ccc12)C12CC3CC(CC(C3)C1)C2`, the IC50 stood at 202 nM in the test on Plasmodium falciparum [1], 439 nM in the test with Plasmodium falciparum [2] and 485 nM with Plasmodium falciparum [3]. Moreover, the IC90 in the test on Plasmodium falciparum [1] turned out to be 465 nM; with Plasmodium falciparum [2], 685 nM; in the test on Plasmodium falciparum [3], 724 nM.
`COC(=O)CC[C@@H](C)[C@H]1CC[C@H]2[C@@H]3[C@H](OC(C)=O)C[C@@H]4C[C@H](OCCNCCNc5ccnc6cc(Cl)ccc56)CC[C@]4(C)[C@H]3C[C@H](OC(C)=O)[C@]12C`: the results for the IC50 with Plasmodium falciparum [1], in the test on Plasmodium falciparum [2] and in the test with Plasmodium falciparum [3] were 14.1 nM, 32.2 nM and 17.8 nM, respectively. Moreover, the IC90 with Plasmodium falciparum [1] was 22.8 nM; in the test with Plasmodium falciparum [2] it was 76 nM; in the test on Plasmodium falciparum [3], 24.6 nM.
On to `Clc1ccc2c(NCCCCCNCCC34CC5CC(CC(C5)C3)C4)ccnc2c1`, for which the IC50 with Plasmodium falciparum [1] was found to be 21.9 nM; in the test with Plasmodium falciparum [2] it was 67.2 nM; with Plasmodium falciparum [3], 160 nM. Further, the values for the IC90 in the test with Plasmodium falciparum [1], with Plasmodium falciparum [2] and with Plasmodium falciparum [3] were 24.8 nM, 168 nM and 311 nM, respectively.
Turning to `O=C(CC12CC3CC(CC(C3)C1)C2)NCCCNc1ccnc2cc(Cl)ccc12`, the IC50 in the test on Plasmodium falciparum [1] was found to be 106 nM; in the test on Plasmodium falciparum [2], 201 nM; with Plasmodium falciparum [3], 337 nM. Also, the results for the IC90 in the test with Plasmodium falciparum [1], in the test with Plasmodium falciparum [2] and with Plasmodium falciparum [3] were 294 nM, 464 nM and 853 nM, respectively.
`Clc1ccc2c(NCCN(CCC34CC5CC(CC(C5)C3)C4)CCC34CC5CC(CC(C5)C3)C4)ccnc2c1`: the results for the 50% inhibitory concentration (IC50) with Plasmodium falciparum [1], in the test with Plasmodium falciparum [2] and in the test on Plasmodium falciparum [3] were 51.9 nM, 101 nM and 78.2 nM, respectively. For the same compound, the IC90 is 70 nM in the test on Plasmodium falciparum [1], 225 nM in the test on Plasmodium falciparum [2] and 113 nM in the test on Plasmodium falciparum [3].
Consider `Clc1ccc2c(NCCCNCC34CC5CC(CC(C5)C3)C4)ccnc2c1`, for which the IC50 in the test with Plasmodium falciparum [1] is 3.83 nM; in the test on Plasmodium falciparum [2] it was 7.39 nM; in the test with Plasmodium falciparum [3] it was 12.1 nM. Further, the IC90 with Plasmodium falciparum [1] amounted to 6.41 nM; in the test with Plasmodium falciparum [2] it was 20.2 nM; with Plasmodium falciparum [3], 20.1 nM.
Regarding `C[C@@H]1CC[C@H]2[C@@H](C)C(=O)O[C@@H]3O[C@@]4(C)CC[C@@H]1[C@]32OO4` [ARTEMISININ], the figures for the IC50 in the test on Plasmodium falciparum [1], in the test on Plasmodium falciparum [2] and with Plasmodium falciparum [3] were 9 nM, 13 nM and 6.7 nM, respectively. For the same compound, the results for the IC90 with Plasmodium falciparum [1], in the test on Plasmodium falciparum [2] and in the test on Plasmodium falciparum [3] were 12.8 nM, 17.4 nM and 11.5 nM, respectively.
Turning to `CC(=O)O[C@@H]1CC[C@@]2(C)[C@@H](C1)C[C@@H](OC(C)=O)[C@@H]1[C@@H]2C[C@H](OC(C)=O)[C@]2(C)[C@@H]([C@H](C)CCCNc3ccnc4cc(Cl)ccc34)CC[C@@H]12`, the IC50 in the test with Plasmodium falciparum [1] was determined as 15.8 nM; in the test with Plasmodium falciparum [2] it was 30.1 nM; in the test with Plasmodium falciparum [3] it was 140 nM. Moreover, the concentration for an effect of 90% (IC90) in the test with Plasmodium falciparum [1] stood at 70.5 nM; in the test on Plasmodium falciparum [2] it was 68.6 nM; with Plasmodium falciparum [3], 1180 nM.
Turning to `O=C(CC12CC3CC(CC(C3)C1)C2)NCCCCCNc1ccnc2cc(Cl)ccc12`, the IC50 with Plasmodium falciparum [1] came out at 267 nM; in the test with Plasmodium falciparum [2] it was 602 nM; with Plasmodium falciparum [3] it was 518 nM. Moreover, the IC90 with Plasmodium falciparum [1] was found to be 347 nM; in the test with Plasmodium falciparum [2], 777 nM; in the test on Plasmodium falciparum [3] it was 660 nM.
For `Clc1ccc2c(NCCNCC34CC5CC(CC(C5)C3)C4)ccnc2c1`, the IC50 in the test with Plasmodium falciparum [1] stood at 4.26 nM; in the test with Plasmodium falciparum [2], 8.73 nM; with Plasmodium falciparum [3], 8.4 nM. Moreover, the values for the IC90 in the test on Plasmodium falciparum [1], in the test on Plasmodium falciparum [2] and with Plasmodium falciparum [3] were 8.23 nM, 14.9 nM and 15.2 nM, respectively.
For the compound `Clc1ccc2c(NCCCCCNCC34CC5CC(CC(C5)C3)C4)ccnc2c1`, the values for the IC50 in the test on Plasmodium falciparum [1], with Plasmodium falciparum [2] and in the test with Plasmodium falciparum [3] were 15.2 nM, 75.3 nM and 131 nM, respectively. The values for the IC90 in the test on Plasmodium falciparum [1], with Plasmodium falciparum [2] and with Plasmodium falciparum [3] were 18.9 nM, 161 nM and 168 nM, respectively.
As for `CC(=O)O[C@@H]1CC[C@@]2(C)[C@@H](C1)C[C@@H](OC(C)=O)[C@@H]1[C@@H]2C[C@H](OC(C)=O)[C@]2(C)[C@@H]([C@H](C)CCC(=O)Nc3ccnc4cc(Cl)ccc34)CC[C@@H]12`, the values for the IC50 in the test with Plasmodium falciparum [1], in the test on Plasmodium falciparum [2] and in the test with Plasmodium falciparum [3] were 3020 nM, 3510 nM and 7190 nM, respectively. Moreover, the IC90 in the test with Plasmodium falciparum [1] is 6920 nM; with Plasmodium falciparum [2] it was 6060 nM.
`CC(=O)O[C@@H]1CC[C@@]2(C)[C@@H](C1)C[C@@H](OC(C)=O)[C@@H]1[C@@H]2C[C@H](OC(C)=O)[C@]2(C)[C@@H]([C@H](C)CCCNCCNc3ccnc4cc(Cl)ccc34)CC[C@@H]12`: the figures for the IC50 with Plasmodium falciparum [1], in the test with Plasmodium falciparum [2] and in the test on Plasmodium falciparum [3] were 16.9 nM, 27.7 nM and 11.4 nM, respectively. The IC90 in the test on Plasmodium falciparum [1] was determined as 34.2 nM; in the test with Plasmodium falciparum [2] it was 77.9 nM; in the test with Plasmodium falciparum [3], 32.5 nM.
`Clc1ccc2c(NCCCN(CCC34CC5CC(CC(C5)C3)C4)CCC34CC5CC(CC(C5)C3)C4)ccnc2c1`: the figures for the IC50 in the test on Plasmodium falciparum [1], with Plasmodium falciparum [2] and in the test with Plasmodium falciparum [3] were 52.2 nM, 109 nM and 83.2 nM, respectively. The values for the IC90 in the test with Plasmodium falciparum [1], with Plasmodium falciparum [2] and in the test on Plasmodium falciparum [3] were 78.3 nM, 171 nM and 132 nM, respectively.
As for `O=C(CC12CC3CC(CC(C3)C1)C2)NCCNc1ccnc2cc(Cl)ccc12`, the IC50 was 78.5 nM in the test with Plasmodium falciparum [1], 238 nM in the test on Plasmodium falciparum [2] and 254 nM in the test with Plasmodium falciparum [3]. The IC90 with Plasmodium falciparum [1] worked out at 157 nM; in the test on Plasmodium falciparum [2], 383 nM; in the test on Plasmodium falciparum [3] it was 397 nM.
